Values quoted from earlier work, collected in paper PMC11600176 (JACS Au, 2024).

Settings: aerated acetonitrile

For `CCCN1C(=O)c2cccc3c(N)ccc(c23)C1=O` [N-propyl-4-amino-1,8-naphthalimide], the “Φf fluorescence quantum yield of the standard” value is given as 0.48.
